# Measured values as given in patent US10065963B2 (Incyte Corporation, priority 2015, dated 2018).
# Where a name gives a salt, the structure may show the parent alone. Read-outs that look alike come from different tables or passages of the source.
# How the values were obtained:
# [1] = target: PI3Kγ (p110γ) Recombinant Human Protein (Homo sapiens (Human), UniProt P48736); experiment: PI3K-γ scintillation proximity assay; type: biochemical; details: 2 μM ATP, 20 μM PIP2
# [2] = target: PI3Kδ (p110δ/p85α) Recombinant Human Protein (Homo sapiens (Human), UniProt O00329); experiment: PI3Kδ scintillation proximity assay; type: biochemical; details: 2 μM ATP, 20 μM PIP2
# Sequence of PI3Kδ (p110δ/p85α) Recombinant Human Protein (O00329 whole entry): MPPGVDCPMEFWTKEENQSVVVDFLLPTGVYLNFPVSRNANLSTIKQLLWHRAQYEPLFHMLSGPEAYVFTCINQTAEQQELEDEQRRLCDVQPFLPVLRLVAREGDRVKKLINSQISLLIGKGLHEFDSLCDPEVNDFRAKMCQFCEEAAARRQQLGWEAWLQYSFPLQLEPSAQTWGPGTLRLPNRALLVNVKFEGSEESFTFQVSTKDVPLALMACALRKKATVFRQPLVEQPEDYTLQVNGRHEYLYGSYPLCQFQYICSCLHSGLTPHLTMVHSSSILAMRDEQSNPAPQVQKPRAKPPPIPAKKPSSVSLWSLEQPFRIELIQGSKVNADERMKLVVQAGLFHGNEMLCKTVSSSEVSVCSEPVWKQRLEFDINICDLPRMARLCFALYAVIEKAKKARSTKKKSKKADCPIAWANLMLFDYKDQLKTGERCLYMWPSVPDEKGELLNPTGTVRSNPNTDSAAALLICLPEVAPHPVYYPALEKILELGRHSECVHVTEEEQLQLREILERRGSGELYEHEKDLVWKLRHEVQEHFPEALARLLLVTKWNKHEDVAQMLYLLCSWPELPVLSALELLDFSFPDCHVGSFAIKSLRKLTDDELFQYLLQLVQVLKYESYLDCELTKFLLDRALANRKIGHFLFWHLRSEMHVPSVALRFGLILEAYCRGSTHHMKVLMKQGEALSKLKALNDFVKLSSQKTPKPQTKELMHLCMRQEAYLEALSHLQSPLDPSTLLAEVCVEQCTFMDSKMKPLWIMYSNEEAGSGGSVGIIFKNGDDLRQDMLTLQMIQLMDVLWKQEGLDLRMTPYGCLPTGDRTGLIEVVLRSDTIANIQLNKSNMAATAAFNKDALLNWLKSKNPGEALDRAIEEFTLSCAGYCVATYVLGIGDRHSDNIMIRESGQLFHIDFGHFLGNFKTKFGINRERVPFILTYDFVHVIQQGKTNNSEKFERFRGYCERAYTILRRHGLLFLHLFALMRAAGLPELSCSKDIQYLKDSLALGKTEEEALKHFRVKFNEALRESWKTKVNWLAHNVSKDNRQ
# Sequence of PI3Kδ (p110δ/p85α) Recombinant Human Protein (P27986 whole entry partner): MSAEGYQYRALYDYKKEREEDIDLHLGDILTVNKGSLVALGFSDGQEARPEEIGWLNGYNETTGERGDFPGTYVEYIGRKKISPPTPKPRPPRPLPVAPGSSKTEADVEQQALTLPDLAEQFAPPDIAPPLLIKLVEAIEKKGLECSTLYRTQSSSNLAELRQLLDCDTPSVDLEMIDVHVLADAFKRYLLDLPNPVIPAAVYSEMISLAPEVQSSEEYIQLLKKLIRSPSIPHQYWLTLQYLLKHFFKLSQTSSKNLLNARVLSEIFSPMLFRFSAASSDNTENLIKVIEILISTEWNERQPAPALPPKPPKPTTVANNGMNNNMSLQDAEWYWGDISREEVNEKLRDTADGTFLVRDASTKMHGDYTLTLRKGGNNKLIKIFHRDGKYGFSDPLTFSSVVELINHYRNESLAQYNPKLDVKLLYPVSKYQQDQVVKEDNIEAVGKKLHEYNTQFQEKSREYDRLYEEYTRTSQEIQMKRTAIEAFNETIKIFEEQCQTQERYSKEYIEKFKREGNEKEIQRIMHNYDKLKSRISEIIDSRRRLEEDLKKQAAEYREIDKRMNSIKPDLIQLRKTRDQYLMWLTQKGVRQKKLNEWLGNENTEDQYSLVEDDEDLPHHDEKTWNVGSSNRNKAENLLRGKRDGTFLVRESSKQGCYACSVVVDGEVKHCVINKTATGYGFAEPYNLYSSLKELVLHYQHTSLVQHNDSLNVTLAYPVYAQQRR
# [3] = system: Phosphorylated Ribosomal Protein S6 (RPS6) in THP-1 cells; experiment: THP-1 RPS6 ELISA assay; type: cell-based, human; details: 10 nM MCP-1, read-out: PI3Kγ_THP1_RPS6_ELISA IC50
# [4] = Homo sapiens, THP-1, THP-1 cells
# Sequence of PI3Kγ (p110γ) Recombinant Human Protein (P48736 whole entry): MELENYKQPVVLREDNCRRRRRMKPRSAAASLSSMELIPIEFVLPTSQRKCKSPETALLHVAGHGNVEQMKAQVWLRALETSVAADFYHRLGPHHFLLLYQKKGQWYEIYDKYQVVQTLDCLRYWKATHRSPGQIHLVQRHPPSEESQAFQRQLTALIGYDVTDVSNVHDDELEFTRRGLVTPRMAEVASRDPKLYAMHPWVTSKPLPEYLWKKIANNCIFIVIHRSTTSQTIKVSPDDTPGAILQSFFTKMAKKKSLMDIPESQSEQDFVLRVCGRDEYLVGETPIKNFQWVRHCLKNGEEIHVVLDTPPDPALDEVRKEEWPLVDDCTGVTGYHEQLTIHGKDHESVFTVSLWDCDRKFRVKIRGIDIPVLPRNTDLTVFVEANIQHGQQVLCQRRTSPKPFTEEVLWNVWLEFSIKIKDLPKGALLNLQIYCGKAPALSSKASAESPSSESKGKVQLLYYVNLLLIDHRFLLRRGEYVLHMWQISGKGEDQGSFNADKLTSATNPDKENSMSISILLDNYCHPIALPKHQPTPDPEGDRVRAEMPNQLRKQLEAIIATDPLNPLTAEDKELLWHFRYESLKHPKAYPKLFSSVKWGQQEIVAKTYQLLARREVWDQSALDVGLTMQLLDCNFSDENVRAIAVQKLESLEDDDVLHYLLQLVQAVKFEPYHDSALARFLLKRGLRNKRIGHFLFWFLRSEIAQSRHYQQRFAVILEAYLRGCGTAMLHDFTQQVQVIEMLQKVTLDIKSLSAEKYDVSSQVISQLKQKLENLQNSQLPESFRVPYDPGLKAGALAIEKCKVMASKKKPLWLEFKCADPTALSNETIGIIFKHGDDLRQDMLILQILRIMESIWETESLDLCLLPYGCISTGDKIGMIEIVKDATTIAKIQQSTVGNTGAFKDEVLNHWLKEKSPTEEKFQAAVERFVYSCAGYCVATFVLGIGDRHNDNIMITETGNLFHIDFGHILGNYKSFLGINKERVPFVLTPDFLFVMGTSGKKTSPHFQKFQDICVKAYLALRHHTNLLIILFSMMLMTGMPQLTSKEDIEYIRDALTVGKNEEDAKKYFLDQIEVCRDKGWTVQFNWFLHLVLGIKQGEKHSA
SMILES,IC50 [1] [nM],IC50 [2] [nM],IC50 ([3]; THP-1 cells) [nM],"IC50 [3, 4] [nM]"
"CC(NC(=O)c1c(N)nn2cccnc12)c1cc(Cl)c2cncn2c1N1CCCC(F)C1 (single isomer, unassigned) [Example 73B, 2-Amino-N-{1-[8-chloro-5-(3-fluoropiperidin-1-yl)imidazo[1,5-a]pyridin-6-yl]ethyl}pyrazolo[1,5-a]pyrimidine-3-carboxamide]",< 100,< 100,< 500,–
"CNC(=O)C1CCN(c2c(C(C)NC(=O)c3c(N)nn4cccnc34)cc(Cl)c3cn[nH]c23)CC1 (stereo not shown) [Example 107, 2-Amino-N-[1-(4-chloro-7-{4-[(methylamino)carbonyl]piperidin-1-yl}-2H-indazol-6-yl)ethyl]pyrazolo[1,5-a]pyrimidine-3-carboxamide trifluoroacetate]",< 100,< 500,–,< 500
"CC(NC(=O)c1c(N)nn2cccnc12)c1cc(Cl)c2cncn2c1N1CCS(=O)(=O)C(C)(C)C1 (stereo not shown) [Example 40, 2-Amino-N-(1-[8-chloro-5-(2,2-dimethyl-1,1-dioxidothiomorpholin-4-yl)imidazo[1,5-a]pyridin-6-yl]ethyl)pyrazolo[1,5-a]pyrimidine-3-carboxamide trifluoroacetate salt]",< 100,< 100,–,< 500
"COCCOc1c(C(C)NC(=O)c2c(N)nn3cccnc23)cc(Cl)c2cn[nH]c12 (stereo not shown) [Example 81, 2-Amino-N-(1-(4-chloro-7-(2-methoxyethoxy)-1H-indazol-6-yl)ethyl)pyrazolo[1,5-a]pyrimidine-3-carboxamide trifluoroacetate]",< 100,< 100,–,< 500
CC(NC(=O)c1c(N)nn2cccnc12)c1cc(Cl)c2cn[nH]c2c1-c1ccccc1 (stereo not shown) [Example 14],–,–,–,< 1000
CCOc1c(C(C)NC(=O)c2c(N)nn3cccnc23)cc(Cl)c2cnn(C)c12 (stereo not shown),–,–,–,< 500
Cc1ncc2c(Cl)cc(C(C)NC(=O)c3c(N)nn4cccnc34)c(-c3cccc(F)c3)n12 (stereo not shown) [Example 26],–,–,–,< 500
CC(NC(=O)c1c(N)nn2cccnc12)c1cc(Cl)c2c(Br)n[nH]c2c1-c1ccccc1 (stereo not shown) [Example 23],–,–,–,< 1000
"CC(NC(=O)c1c(N)nn2cccnc12)c1cc(Cl)c2cncn2c1C1CCCCC1 (racemic) [Example 183, 2-Amino-N-[1-(8-chloro-5-cyclohexylimidazo[1,5-a]pyridin-6-yl)ethyl]pyrazolo[1,5-a]pyrimidine-3-carboxamide trifluoroacetate salt]",< 500,< 2000,–,–
"CCCC(NC(=O)c1c(N)nn2cccnc12)c1cc(Cl)c2cncn2c1N1CCS(=O)(=O)CC1 (stereo not shown) [Example 178, trifluoroacetate salt]",–,–,–,< 500
"CCOc1c(C(C)NC(=O)c2c(N)nn3cccnc23)cc(Cl)c2cn(CC(C)C)nc12 (stereo not shown) [Example 9a, 2-amino-N-(1-(4-chloro-7-ethoxy-2-isobutyl-2H-indazol-6-yl)ethyl)pyrazolo[1,5-a]pyrimidine-3-carboxamide trifluoroacetate]",< 2000,≥ 2000,–,–
"CC(NC(=O)c1c(N)nn2cccnc12)c1cc(Cl)c2cn[nH]c2c1C1=CCN(C(=O)OCc2ccccc2)CC1 (stereo not shown) [Example 98, Benzyl 4-[6-(1-{[(2-aminopyrazolo[1,5-a]pyrimidin-3-yl)carbonyl]amino}ethyl)-4-chloro-2H-indazol-7-yl]-3,6-dihydropyridine-1(2H)-carboxylate bis(trifluoroacetate)]",< 500,< 2000,–,–
"C[C@H](NC(=O)c1c(N)nn2cccnc12)c1cc(Cl)c2c(Cl)ncn2c1N1CCNC(=O)CC1 [Example 161, 2-Amino-N-{(1S)-1-[1,8-dichloro-5-(5-oxo-1,4-diazepan-1-yl)imidazo[1,5-a]pyridin-6-yl]ethyl} pyrazolo[1,5-a] pyrimidine-3-carboxamide trifluoroacetate salt]",< 100,< 100,–,–
